Results published in patent US20230111310A1, “CARBOXYLIC ACID DERIVATIVE-SUBSTITUTED IMINO ARYL COMPOUND, PREPARATION METHOD THEREFOR, HERBICIDAL COMPOSITION AND USE THEREOF” (Qingdao Kingagroot Chemical Compound Co., Ltd., priority 2020, published 2023).

Experiments:
Assay type in all cases: in vivo
Abutilon theophrasti [1] = assay: Weeding effect in post-emergence stage; settings: Dose 15 g/ha; for Weeding effect in post-emergence stage, Abutilon theophrasti: level of fresh weight growth control rate
Summary of the method: (§1)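 Doses of 500, 250, 125, 60, 30, 15 and 7.5 g/ha, with methyl oleate synergist (1.5 liter/ha) and Tween 80 from acetone solution, applied by spray tower post-emergence (2–3 leaf stage). Weed control scored after 3 further greenhouse weeks, averaged over triplicates.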

Alopecurus japonicus = assay: Weeding effect in post-emergence stage; settings: Dose 15 g/ha; for Weeding effect in post-emergence stage, Alopecurus japonicus: level of fresh weight growth control rate
Summary of the method: as §1

Digitaria sanguinalis = assay: Weeding effect in post-emergence stage; settings: Dose 15 g/ha; for Weeding effect in post-emergence stage, Digitaria sanguinalis: level of fresh weight growth control rate
Summary of the method: as §1

Eleusine indica = assay: Weeding effect in post-emergence stage; settings: Dose 15 g/ha; for Weeding effect in post-emergence stage, Eleusine indica: level of fresh weight growth control rate
Summary of the method: as §1

Setaria viridis [2] = assay: Weeding effect in post-emergence stage; settings: Dose 15 g/ha; for Weeding effect in post-emergence stage, Setaria viridis: level of fresh weight growth control rate
Summary of the method: as §1

Echinochloa crusgalli = assay: Weeding effect in post-emergence stage; settings: Dose 15 g/ha; for Weeding effect in post-emergence stage, Echinochloa crusgalli: level of fresh weight growth control rate
Summary of the method: as §1

Abutilon theophrasti [3] = assay: Weeding effect in pre-emergence stage; settings: 30 g/ha, 4 weeks
Protocol: (§2) The activity level criteria for plant damage (i.e., growth control rate) are as follows:
(§3) The aforementioned seeds of monocotyledonous and dicotyledonous weeds and main crops were put into a plastic pot loaded with soil and covered with 0.5-2 cm soil. The test compounds of the present invention was dissolved with acetone, then added with tween 80, diluted by a certain amount of water to reach a certain concentration, and sprayed immediately after sowing. The obtained seeds were incubated for 4 weeks in the greenhouse after spraying and the test results were observed. It was observed that the herbicide mostly had excellent effect at the application rate of 500, 250, 125, 60, 30, 15, 7.5 g/ha, especially to weeds such as Echinochloa crusgalli. Digitaria sanguinalis and Abutilon theophrasti, etc. And many compounds had good selectivity for corn, cotton, wheat, rice, soybean, and peanut etc. In addition, evaluate the weed control effect with the above activity standard level.

Amaranthus retroflexus = assay: Weeding effect in pre-emergence stage; settings: 30 g/ha, 4 weeks
Protocol: as §2, §3

Capsella bursa-pastoris = assay: Weeding effect in pre-emergence stage; settings: 30 g/ha, 4 weeks
Protocol: as §2, §3

Descurainia sophia = assay: Weeding effect in pre-emergence stage; settings: 30 g/ha, 4 weeks
Protocol: as §2, §3

Setaria viridis [4] = assay: Weeding effect in pre-emergence stage; settings: 30 g/ha, 4 weeks
Protocol: as §2, §3

Veronica didyma Tenore = assay: Weeding effect in pre-emergence stage; settings: 30 g/ha, 4 weeks
Protocol: as §2, §3

Peanut = assay: Pre-emergence stage, crop selectivity; settings: 30 g/ha, 4 weeks
Protocol: as §2, §3

Soybeans = assay: Pre-emergence stage, crop selectivity; settings: 30 g/ha, 4 weeks
Protocol: as §2, §3

corn = assay: Pre-emergence stage, crop selectivity; settings: 30 g/ha, 4 weeks
Protocol: as §2, §3

cotton = assay: Pre-emergence stage, crop selectivity; settings: 30 g/ha, 4 weeks
Protocol: as §2, §3

[5] = fresh weight control rate level

| SMILES | Weeding effect in post-emergence stage, Abutilon theophrasti (Abutilon theophrasti [1]) | Weeding effect in post-emergence stage, Alopecurus japonicus (Alopecurus japonicus) | Weeding effect in post-emergence stage, Digitaria sanguinalis (Digitaria sanguinalis) | Weeding effect in post-emergence stage, Eleusine indica (Eleusine indica) | Weeding effect in post-emergence stage, Setaria viridis (Setaria viridis [2]) | Weeding effect in post-emergence stage, Echinochloa crusgalli (Echinochloa crusgalli) | activity level (growth control rate) Abutilon theophrasti (Abutilon theophrasti [3]) | activity level (growth control rate) Amaranthus retroflexus (Amaranthus retroflexus) | activity level (growth control rate) Capsella bursa-pastoris (Capsella bursa-pastoris) | activity level (growth control rate) Descurainia sophia (Descurainia sophia) | activity level (growth control rate) Setaria viridis (Setaria viridis [4]) | activity level (growth control rate) Veronica didyma Tenore (Veronica didyma Tenore) | plant damage level Peanut (Peanut) | plant damage level Soybeans (Soybeans) | plant damage level Corn (corn) | plant damage level Cotton (cotton) | other results |
| --- | --- | --- | --- | --- | --- | --- | --- | --- | --- | --- | --- | --- | --- | --- | --- | --- | --- |
| C[C@@H](O/N=C/c1cc(-n2c(=O)cc(C(F)(F)F)n(C)c2=O)c(F)cc1Cl)C(=O)OCc1ccccc1 [283(R)] | 5 (Level 5: growth control rate is above 85%) | 5 (Level 5: growth control rate is above 85%) | 5 (Level 5: growth control rate is above 85%) | 5 (Level 5: growth control rate is above 85%) | 5 (Level 5: growth control rate is above 85%) | 5 (Level 5: growth control rate is above 85%) | 5 (Level 5: growth control rate is above 85%) | 5 (Level 5: growth control rate is above 85%) | 5 (Level 5: growth control rate is above 85%) | 5 (Level 5: growth control rate is above 85%) | 5 (Level 5: growth control rate is above 85%) | 5 (Level 5: growth control rate is above 85%) | 0 (Level 0: growth control rate is less than 5%) | 0 (Level 0: growth control rate is less than 5%) | 0 (Level 0: growth control rate is less than 5%) | 0 (Level 0: growth control rate is less than 5%) |  |
| CC(C)=NOC(=O)[C@@H](C)O/N=C/c1cc(-n2c(=O)cc(C(F)(F)F)n(C)c2=O)c(F)cc1Cl [248(R)] | 5 (Level 5: growth control rate is above 85%) | 5 (Level 5: growth control rate is above 85%) | 5 (Level 5: growth control rate is above 85%) | 5 (Level 5: growth control rate is above 85%) | 5 (Level 5: growth control rate is above 85%) | 5 (Level 5: growth control rate is above 85%) | 5 (Level 5: growth control rate is above 85%) | 5 (Level 5: growth control rate is above 85%) | 5 (Level 5: growth control rate is above 85%) | 5 (Level 5: growth control rate is above 85%) | 5 (Level 5: growth control rate is above 85%) | 5 (Level 5: growth control rate is above 85%) | 0 (Level 0: growth control rate is less than 5%) | 0 (Level 0: growth control rate is less than 5%) | 0 (Level 0: growth control rate is less than 5%) | 0 (Level 0: growth control rate is less than 5%) |  |
| CCOC(=O)[C@@H](C)O/N=C/c1cc(-n2c(=O)n(C)c(=S)n(C)c2=O)c(F)cc1Cl [2(R)] | 5 (Level 5: growth control rate is above 85%) | 5 (Level 5: growth control rate is above 85%) | 5 (Level 5: growth control rate is above 85%) | 5 (Level 5: growth control rate is above 85%) | 5 (Level 5: growth control rate is above 85%) | 5 (Level 5: growth control rate is above 85%) | 5 (Level 5: growth control rate is above 85%) | 5 (Level 5: growth control rate is above 85%) | 5 (Level 5: growth control rate is above 85%) | 5 (Level 5: growth control rate is above 85%) | 5 (Level 5: growth control rate is above 85%) | 5 (Level 5: growth control rate is above 85%) | 0 (Level 0: growth control rate is less than 5%) | 0 (Level 0: growth control rate is less than 5%) | 0 (Level 0: growth control rate is less than 5%) | 0 (Level 0: growth control rate is less than 5%) |  |
| CC[C@@H](O/N=C/c1cc(-n2c(=O)cc(C(F)(F)F)n(C)c2=O)c(F)cc1Cl)C(=O)OC [315(R)] | 5 (Level 5: growth control rate is above 85%) | 5 (Level 5: growth control rate is above 85%) | 5 (Level 5: growth control rate is above 85%) | 5 (Level 5: growth control rate is above 85%) | 5 (Level 5: growth control rate is above 85%) | 5 (Level 5: growth control rate is above 85%) | 5 (Level 5: growth control rate is above 85%) | 5 (Level 5: growth control rate is above 85%) | 5 (Level 5: growth control rate is above 85%) | 5 (Level 5: growth control rate is above 85%) | 5 (Level 5: growth control rate is above 85%) | 5 (Level 5: growth control rate is above 85%) | 0 (Level 0: growth control rate is less than 5%) | 0 (Level 0: growth control rate is less than 5%) | 0 (Level 0: growth control rate is less than 5%) | 0 (Level 0: growth control rate is less than 5%) |  |
| CC(O/N=C/c1cc(-n2c(=O)cc(C(F)(F)F)n(C)c2=O)c(F)cc1Cl)C(=O)OCc1ccncc1 (stereo not shown) [Compound 303] | 5 (Level 5: growth control rate is above 85%) | 5 (Level 5: growth control rate is above 85%) | 5 (Level 5: growth control rate is above 85%) | 5 (Level 5: growth control rate is above 85%) | 5 (Level 5: growth control rate is above 85%) | 5 (Level 5: growth control rate is above 85%) |  |  |  |  |  |  |  |  |  |  |  |
| COC(=O)C(C)O/N=C/c1cc(-n2c(=O)n(C)c(=O)n(C)c2=O)c(F)cc1Cl (racemic) [Compound 164] | 5 (Level 5: growth control rate is above 85%) | 5 (Level 5: growth control rate is above 85%) | 5 (Level 5: growth control rate is above 85%) | 5 (Level 5: growth control rate is above 85%) | 5 (Level 5: growth control rate is above 85%) | 5 (Level 5: growth control rate is above 85%) |  |  |  |  |  |  |  |  |  |  |  |
| COC(=O)CCNC(=O)[C@@H](C)O/N=C/c1cc(-n2c(=O)n(C)c(=S)n(C)c2=O)c(F)cc1Cl [183(R)] | 5 (Level 5: growth control rate is above 85%) | 5 (Level 5: growth control rate is above 85%) | 5 (Level 5: growth control rate is above 85%) | 5 (Level 5: growth control rate is above 85%) | 5 (Level 5: growth control rate is above 85%) | 5 (Level 5: growth control rate is above 85%) |  |  |  |  |  |  |  |  |  |  |  |
| C=CCC(O/N=C/c1cc(-n2c(=O)cc(C(F)(F)F)n(C)c2=O)c(F)cc1Cl)C(=O)OC (stereo not shown) [Compound 487] |  |  |  |  |  |  |  |  |  |  |  |  |  |  |  |  | Weeding effect in post-emergence stage, Abutilon theophrasti (level) (Abutilon theophrasti [1]; [5]): 5 (Level 5: growth control rate is above 85%); Weeding effect in post-emergence stage, Alopecurus japonicus (level) (Alopecurus japonicus; [5]): 5 (Level 5: growth control rate is above 85%); Weeding effect in post-emergence stage, Digitaria sanguinalis (level) (Digitaria sanguinalis; [5]): 5 (Level 5: growth control rate is above 85%); Weeding effect in post-emergence stage, Eleusine indica (level) (Eleusine indica; [5]): 5 (Level 5: growth control rate is above 85%); Weeding effect in post-emergence stage, Setaria viridis (level) (Setaria viridis [2]; [5]): 5 (Level 5: growth control rate is above 85%); Weeding effect in post-emergence stage, Echinochloa crusgalli (level) (Echinochloa crusgalli; [5]): 5 (Level 5: growth control rate is above 85%) |
